The values below come from ChEMBL document CHEMBL5230090, “Recent progress in Keap1-Nrf2 protein-protein interaction inhibitors” (Eur J Med Chem, 2020).

SMILES strings stand for the structures. pEC50, pIC50, pKd: −log10 of the molar value. Several values for one entry are separate records, joined by “and”; a condition that tells them apart may be missing. Equal values may be shown once. Starred links: 1 amine or outer side, 2 acyl side, 3 side chain; linkers in the order of their positions; H or OH if unused. Positions of bridges follow the written chain, without caps; N, C: chain ends. Non-standard residues stand in square brackets, D forms with d. Residues, ends and D or L forms follow the SMILES beside them. Chains are numbered I, II in the order given. X1 = NC(=O)[C@H](CCCCNC(=O)COCCOCCN[*:1])N[*:2]; 2Nal = N[C@@H](Cc1ccc2ccccc2c1)C(=O)O; CH2CH2 = C(C[*:2])[*:1]

The target in assay [1] is T1, Kelch-like ECH-associated protein 1 (Homo sapiens, UniProt Q14145). The assay can be described thus: Binding affinity to human KEAP1 by fluorescence polarization assay.
The target in assay [2] is T2, Keap1/Nrf2 (Homo sapiens, UniProt Q14145). The assay is described as follows: Inhibition of human Keap1-Nrf2 protein-protein interaction by ELISA method. Type of assay: protein assay.
The target of assay [3] is T1, Kelch-like ECH-associated protein 1. The assay is described as follows: Binding affinity to human KEAP1 Kelch domain by SPR direct binding assay.
The target is the same in assay [4]. The assay is described as follows: Binding affinity to human KEAP1 incubated for 1 hr by absorbance based analysis.
Assay [5] has the same target. The assay can be described thus: Binding affinity to human KEAP1 Kelch domain (residues Ala321-Thr609) expressed in Escherichia coli BL21(DE3) cells assessed as dissociation constant by isothermal titration calorimetric analysis.
For assay [6] the target is unchanged. The assay is described as follows: Binding affinity to human KEAP1 Kelch domain (residues Ala321-Thr609) expressed in Escherichia coli BL21(DE3) cells assessed as dissociation constant by SPR direct binding assay.
The target of assay [7] is T2, Keap1/Nrf2.
In assay [8] the target is T2, Keap1/Nrf2. The assay is described as follows: Inhibition of human Keap1-Nrf2 protein-protein interaction expressed in U2OS cells incubated for 6 hrs by cellular Keap1-Nrf2 functional assay. The assay is classed as cell-based.
Assay [9] addresses T1, Kelch-like ECH-associated protein 1.
For assay [10] the target is unchanged. This is another data set of the same source.
The target of assay [11] is T2, Keap1/Nrf2. The source holds these as a separate data set.
The target in assay [12] is T1, Kelch-like ECH-associated protein 1. The assay can be described thus: Binding affinity to human KEAP1 by fluorescence anisotropy assay.

T1 sequence (Q14145 whole entry): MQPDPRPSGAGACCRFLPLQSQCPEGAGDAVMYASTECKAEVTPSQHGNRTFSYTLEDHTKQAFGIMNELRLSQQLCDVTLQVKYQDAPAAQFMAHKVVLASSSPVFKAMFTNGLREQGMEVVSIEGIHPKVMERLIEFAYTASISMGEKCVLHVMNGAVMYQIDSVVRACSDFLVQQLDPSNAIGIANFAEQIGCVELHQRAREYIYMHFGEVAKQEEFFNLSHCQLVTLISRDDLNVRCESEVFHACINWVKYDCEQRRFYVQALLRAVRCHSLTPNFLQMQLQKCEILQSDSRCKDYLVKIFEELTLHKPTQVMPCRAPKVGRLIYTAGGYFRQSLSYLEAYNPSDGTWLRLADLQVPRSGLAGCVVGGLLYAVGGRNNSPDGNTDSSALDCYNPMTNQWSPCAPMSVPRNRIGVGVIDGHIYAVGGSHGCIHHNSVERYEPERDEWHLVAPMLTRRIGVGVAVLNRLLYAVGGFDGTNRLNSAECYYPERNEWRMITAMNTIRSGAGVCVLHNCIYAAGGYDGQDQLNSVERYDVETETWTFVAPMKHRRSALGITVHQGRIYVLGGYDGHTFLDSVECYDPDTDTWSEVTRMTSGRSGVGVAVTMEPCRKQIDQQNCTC
T2 sequence (Q16236 whole entry, the tested form may be a part): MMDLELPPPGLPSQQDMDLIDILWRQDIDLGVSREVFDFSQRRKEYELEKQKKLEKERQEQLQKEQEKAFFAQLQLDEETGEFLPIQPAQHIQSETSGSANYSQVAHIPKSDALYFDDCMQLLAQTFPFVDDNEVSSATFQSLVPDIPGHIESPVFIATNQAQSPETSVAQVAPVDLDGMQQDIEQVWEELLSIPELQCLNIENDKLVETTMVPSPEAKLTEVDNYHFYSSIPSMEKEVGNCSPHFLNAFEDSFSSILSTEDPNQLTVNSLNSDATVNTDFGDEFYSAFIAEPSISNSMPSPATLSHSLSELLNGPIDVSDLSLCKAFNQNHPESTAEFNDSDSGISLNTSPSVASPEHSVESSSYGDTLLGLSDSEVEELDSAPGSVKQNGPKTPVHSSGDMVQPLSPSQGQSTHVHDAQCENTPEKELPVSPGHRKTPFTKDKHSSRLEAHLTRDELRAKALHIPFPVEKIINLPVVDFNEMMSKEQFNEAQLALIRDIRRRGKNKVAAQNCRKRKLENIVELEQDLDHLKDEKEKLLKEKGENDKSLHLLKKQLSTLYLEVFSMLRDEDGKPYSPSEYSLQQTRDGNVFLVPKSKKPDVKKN
T2 sequence (Q14145 whole entry, the tested form may be a part): as the sequence (Q14145 whole entry) above

On to `NCCCC[C@H](NC(=O)[C@H](CCCCN)NC(=O)[C@@H](N)CC(=O)O)C(=O)O` (H-Asp-Lys-Lys-OH), for which the negative logarithm of the Kd (pKd) in assay [1] was 6.92.
As to `CC(=O)N1CCN(c2ccc(OCC3COC(Cn4ccnc4)(c4ccc(Cl)cc4Cl)O3)cc2)CC1` (stereo not drawn) [KETOCONAZOLE], at Keap1/Nrf2 [2], the negative-log IC50 (pIC50) was 5.78.
`O=c1c2ccccc2nc2c3[nH]c4ccccc4c3ccn12`: the pKd in assay [3] was 4.71.
Take `C[C@@H]1NC(=O)[C@H](CC(=O)O)NC(=O)[C@@H](N)Cc2ccc(cc2)OCCSC[C@@H](C(=O)O)NC(=O)[C@H](CCC(=O)O)NC(=O)CNC(=O)[C@H]([C@@H](C)O)NC(=O)[C@H](CCC(=O)O)NC1=O` (H-YDAETGEC-OH; linker 1-8 via CH2CH2): the negative-log Kd (pKd) in [4] was 7.40.
For `N[C@@H](CCC(=O)O)C(=O)N[C@@H](Cc1c[nH]c2ccccc12)C(=O)N[C@@H](Cc1c[nH]c2ccccc12)C(=O)N[C@@H](Cc1c[nH]c2ccccc12)C(=O)O` (H-EWWW-OH), the pKd in assay [5] is 5.00; in assay [6], 4.11.
In the case of `COC1=C(NCC(=O)O)CC(O)(CO)C/C1=N\C(CO)C(=O)O` (stereo not drawn), the pIC50 against Keap1/Nrf2 [7] is 4.00 and 3.73.
In the case of `COC1=C(NCC(=O)O)CC(O)(CO)C/C1=N\C(C(=O)O)C(C)O` (stereo not drawn), the negative-log IC50 (pIC50) against Keap1/Nrf2 [7] was 4.00 and 3.73.
In turn, `CC(C)C[C@@H]1NC(=O)[C@H](Cc2ccccc2)NC(=O)[C@H](CCC(=O)O)NC(=O)CNC(=O)[C@H]([C@@H](C)O)NC(=O)[C@H](CCC(=O)O)NC(=O)[C@@H]2CCCN2C(=O)[C@H](CC(=O)O)NC(=O)[C@H](CC(C)C)NC(=O)[C@H](CCC(=O)NCCOCCOCC(=O)NCCCC[C@H](NC(=O)CC[C@@H]2NC(=O)[C@H](CCCNC(=N)N)NC(=O)[C@H](CCCNC(=N)N)NC(=O)[C@H](CCCNC(=N)N)NC(=O)[C@H](CCCNC(=N)N)NC(=O)[C@H](Cc3ccc4ccccc4c3)NC(=O)[C@H](Cc3ccccc3)NC2=O)C(N)=O)NC(=O)CNC1=O` (I: cyclo(DPETGEFLGEL) / II: cyclo([2Nal]RRRREF); linker I:10-II:6 via X1) gave a pKd in assay [1] of 7.32. At Keap1/Nrf2 [7], this molecule had a pIC50 of 6.82.
Take `CCCCC1CCCN1C(=O)c1cccc(-c2cccc(-n3ncc(C(=O)O)c3C3CC3)c2)c1` (stereo not drawn): on Keap1/Nrf2 [7], the pIC50 was 7.20.
`CC1=NN(c2ccccc2)C(=O)/C1=C/c1ccc(OS(=O)(=O)c2ccccc2[N+](=O)[O-])cc1` gave a negative-log EC50 (pEC50) on Keap1/Nrf2 [8] of 5.84.
Consider `O=C(O)c1ccc(NC2=C/C(=N/S(=O)(=O)c3ccc4ccccc4c3)c3ccccc3C2=O)cc1`, for which the pKd in [9] is 6.80. At Keap1/Nrf2 [7], this molecule showed a negative-log IC50 (pIC50) of 5.57.
With `N[C@@H](CC(=O)O)C(=O)N[C@@H](CC(=O)O)C(=O)N[C@@H](Cc1c[nH]c2ccccc12)C(=O)O` (H-Asp-Asp-Trp-OH), in assay [1], the pKd was 7.00.
In [10], `COc1ccc(S(=O)(=O)N(Cc2nnn[nH]2)c2ccc(N(Cc3nnn[nH]3)S(=O)(=O)c3ccc(OC)cc3)c3ccccc23)cc1` gave a negative-log Kd (pKd) of 7.40. The negative logarithm of the IC50 (pIC50) against Keap1/Nrf2 [11] is 7.80; against Keap1/Nrf2 [7], 7.84.
As for `CC[C@H](C)[C@@H]1NC(=O)[C@H](CC(=O)O)NC(=O)[C@@H](N)Cc2ccc(cc2)OCCSC[C@@H](C(=O)O)NC(=O)[C@H](CCC(=O)O)NC(=O)CNC(=O)[C@H]([C@@H](C)O)NC(=O)[C@H](CCC(=O)O)NC1=O` (H-YDIETGEC-OH; linker 1-8 via CH2CH2), the negative-log Kd (pKd) in assay [4] was 7.37.
For the molecule `CC[C@H](C)[C@@H]1NC(=O)[C@H](CC(=O)O)NC(=O)[C@H](CCC(N)=O)NC(=O)[C@H](CCCNC(=N)N)NC(=O)[C@H](Cc2c[nH]c3ccccc23)NC(=O)[C@H](CC(C)C)NC(=O)[C@H]([C@@H](C)CC)NC(=O)[C@H](CC(=O)O)NC(=O)[C@@H](NC(=O)[C@H](CC(C)C)NC(=O)[C@H](CC(=O)O)NC(=O)[C@@H](N)CCSC)CSSC[C@@H](C(=O)N[C@@H](Cc2ccccc2)C(=O)N[C@@H](CO)C(=O)O)NC(=O)[C@H](Cc2ccccc2)NC(=O)[C@H](C(C)C)NC(=O)[C@H](CCC(=O)O)NC(=O)[C@H](CCCNC(=N)N)NC(=O)[C@H](CO)NC(=O)[C@H](C(C)C)NC(=O)CNC(=O)[C@H](CC(C)C)NC(=O)[C@H](CC(=O)O)NC1=O` (H-MDLCDILWRQDIDLGVSREVFCFS-OH; disulfide 4-22), the negative logarithm of the Kd (pKd) in assay [1] was 7.29.
In the case of `CCc1ccc(S(=O)(=O)N(CC(=O)O)c2cc(Sc3nc[nH]n3)c(O)c3ccccc23)cc1`, the pKd was 6.34 in [9] and 5.94 in assay [12].
`C[C@H](Oc1cccc(-c2cccc(-n3ncc(C(=O)O)c3[C@@H]3C[C@H]3c3cn(C)nn3)c2)c1)C1CCCCC1` showed a negative logarithm of the IC50 (pIC50) at Keap1/Nrf2 [7] of 8.00.
